From patent US20070092877A1, “Bcrm-1 genes and uses thereof” (priority 2003, published 2007)

Test system: 293T cells stably transfected with a BCRM-1 expression vector
Test: clonogenic assays of stably transfected 293T cells with cisplatin
Format: cell-based
Conditions: clone with the highest level of BCRM-1 vs control vector transfectants, FIG. 3
Source text: To investigate whether BCRM-1 could render cells resistant to DNA-damaging agents, 293T cells were stably transfected with a BCRM-1 expression vector (FIG. 3). The BCRM-1 full length EcoRI-XhoI fragment was cloned into the EcoRI-XhoI sites of the pcDNA6/Bsd vector (Clontech, Palo Alto, Calif.). 293T cells were transfected with the BCRM/bsd vector or an empty pcDNA/bsd vector, respectively, by the method described in Example 8 above; Stable transfectants were selected through serial passages in the presence of blasticidin 10 μg/ml (Clontech, Palo Alto, Calif.). These blasticidin-resistant clones were isolated and repicked using the same selection procedure. One of these clones expressed the highest level of BCRM-1 by Western blotting. It was further tested in clonogenic assays and found to be 5-10 times more resistant to DNA damaging agent cisplatin than 293T cells stably transfected with the control vector (FIG. 3).

## N.N.[Cl][Pt][Cl] [cisplatin]
  resistance to cisplatin of the BCRM-1 expressing clone relative to 293T cells stably transfected with the control vector: 5-10 times
